From patent US10968193B2, “Antidiabetic bicyclic compounds” (Merck Sharp & Dohme Corp., priority 2014, dated 2021)

Each compound was assayed against T1, human GPR40 (Homo sapiens, UniProt O14842) (assay: Inositol Phosphate Turnover (IP1) Assay 3). Settings: HEK cells stably expressing human GPR40.
T1 construct: expressed in transfected cells; host or cells: HEK cells stably expressing the aequorin reporter
T1 sequence (O14842 whole entry): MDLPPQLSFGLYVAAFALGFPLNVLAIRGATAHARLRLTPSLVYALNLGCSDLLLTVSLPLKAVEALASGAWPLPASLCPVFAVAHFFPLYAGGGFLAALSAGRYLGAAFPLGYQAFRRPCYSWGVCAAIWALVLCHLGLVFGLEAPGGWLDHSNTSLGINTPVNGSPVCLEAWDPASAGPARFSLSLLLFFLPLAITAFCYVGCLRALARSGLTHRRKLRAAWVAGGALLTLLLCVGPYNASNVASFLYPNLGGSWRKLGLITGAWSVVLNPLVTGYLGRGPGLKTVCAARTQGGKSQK
Format: cell-based
Procedure, shortened: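 HEK cells stably expressing human GPR40, plated 16 h before, were treated with compound for 60 min at 37 °C in stimulation buffer. IP1 measured by HTRF (665/620 nm ratio) against an IP1 standard curve; activity normalized to a reference compound, EC50 from 4-parameter fit.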
Compound `CCN(Cc1cc(-c2ccnc(OC)c2)ccc1C1CCc2ccc([C@H](C3CC3)[C@H](C)C(=O)O)cc2O1)C(C)C` (single isomer, unassigned) [Example 113a] has an EC50 of 0.4 nM.
`COc1cc(-c2ccc(C3CCc4ccc([C@H](C5CC5)[C@H](C)C(=O)O)cc4O3)cc2CN2CCCCC23CCC3)c(F)cn1` (stereo partly drawn) [Example 262] showed an EC50 of 0.2 nM.
For `CCOc1cc(-c2ccc(C3CCc4ccc([C@H](C5CC5)[C@H](C)C(=O)O)cc4O3)cc2CN(CC)CC)c(Cl)cn1` (single isomer, unassigned) [Example 215], the EC50 was 6 nM.
In the case of `COc1cc(-c2ccc(C3CCc4ccc([C@H](C5CC5)[C@@H](C)C(=O)O)cc4O3)cc2CN(C(C)C)C(C)C)ccn1` (stereo partly drawn) [Example 285], the EC50 is reported as 4 nM.
With `COc1cc(-c2ccc(C3CCc4ccc([C@H](C5CC5)[C@H](C)C(=O)O)cc4O3)cc2CN2[C@H](C)CC[C@@H]2C)ccn1` (stereo partly drawn) [Example 275] the EC50 was 2.8 nM.
`CCN(CC)Cc1cc(C2CCc3ccc([C@H](C4CC4)[C@H](C)C(=O)O)cc3O2)ncc1-c1cc(OC)ncc1F` (single isomer, unassigned) [Example 87] gave an EC50 of 6.6 nM.
Work on `COc1cc(-c2ccc(C3CCc4ccc([C@H](C5CC5)[C@H](C)C(=O)O)c(F)c4O3)cc2CN2[C@H](C)CC[C@H]2C)c(F)cn1` (single isomer, unassigned) [Example 208] yielded an EC50 of 0.73 nM.
Compound `CCN(CC)C(C)c1cc(C2CCc3ccc([C@H](C4CC4)[C@H](C)C(=O)O)cc3O2)ccc1-c1cc(OC)ncc1F` (single isomer, unassigned) [Example 245] has an EC50 of 5.4 nM.
In the case of `COc1cc(-c2ccc(C3CCc4ccc([C@H](C5CC5)[C@H](C)C(=O)O)cc4O3)c(CN3[C@H](C)CC[C@@H]3C)c2)ccn1` (single isomer, unassigned) [Example 122b], the EC50 is reported as 190 nM.
`COc1cc(-c2ccc([C@H]3CCc4ccc([C@H](C5CC5)[C@H](C)C(=O)O)cc4O3)cc2CN2CCCCC23CC3)ccn1` [Example 176] showed an EC50 of 0.2 nM.
Compound `CCN(CC)Cc1nc(C2CCc3ccc([C@H](C4CC4)[C@H](C)C(=O)O)cc3O2)ccc1-c1cc(OC)ncc1F` (single isomer, unassigned) [Example 89] has an EC50 of 0.9 nM.
With `CCN(Cc1cc(-c2ccnc(OC)c2)ccc1C1CCc2ccc([C@H](C3CC3)[C@H](C)C(=O)O)cc2O1)C(C)C` (mixture of isomers) [Example 113] the EC50 was 0.7 nM.
`COc1cc(-c2ccc(C3CCc4ccc([C@H](C5CC5)[C@H](C)C(=O)O)cc4O3)cc2C(CN2CCCC2)OC)ccn1` (single isomer, unassigned) [Example 177, (2S, 3R)-3-cyclopropyl-3-((R or S)-2-(3-((R or S)-1-methoxy-2-(pyrrolidin-1-yl)ethyl)-4-(2-methoxypyridin-4-yl)phenylchroman-7-yl)-2-methylpropanoic acid] gave an EC50 of 231 nM.
With `COc1cc(-c2ccc(C3CCc4ccc([C@H](C5CC5)[C@H](C)C(=O)O)cc4O3)cc2CN2[C@H](C)CCC[C@@H]2C)ccn1` (stereo partly drawn) [Example 239] the EC50 was 1.1 nM.
`COc1cc(-c2ccc(C3CCc4ccc([C@H](C5CC5)[C@H](C)C(=O)O)cc4O3)cc2CN(C)C(C)C)ccn1` (stereo partly drawn) [Example 286] gave an EC50 of 11 nM.
With `COc1cc(-c2ccc(C3CCc4ccc([C@H](C5CCC5)[C@H](C)C(=O)O)cc4O3)cc2CN2CCCCC23CC3)c(F)cn1` (single isomer, unassigned) [Example 107] the EC50 was 0.1 nM.
`COc1cc(-c2ccc(C3CCc4ccc([C@H](C5CC5)[C@H](C)C(=O)O)cc4O3)cc2CN2C(C)(C)CCCC2(C)C)ccn1` (stereo partly drawn) [Example 238] showed an EC50 of 0.14 nM.
`COc1cc(-c2ccc(C3CCc4ccc([C@H](C5CC5)[C@H](C)C(=O)O)c(F)c4O3)cc2CN2CCCC2)c(F)cn1` (single isomer, unassigned) [Example 199] gave an EC50 of 5.7 nM.
With `CCOc1cc(-c2ccc(C3CCc4ccc([C@H](C5CC5)[C@H](C)C(=O)O)cc4O3)c(CN(C)C(C)(C)C)c2)c(F)cn1` (single isomer, unassigned) [Example 132a] the EC50 was 1.8 nM.
In the case of `CCN(Cc1cc(-c2cc(OC)ncc2F)ccc1C1CCc2ccc([C@H](C3CC3)[C@H](C)C(=O)O)cc2O1)C(C)C` (single isomer, unassigned) [Example 124b], the EC50 is reported as 16 nM.
`COc1cc(-c2ccc(C3CCc4ccc([C@H](C5CC5)[C@H](C)C(=O)O)cc4O3)c(CN3CCCCC34CC4)c2)ccn1` (single isomer, unassigned) [Example 224] gave an EC50 of 11 nM.
Work on `COc1cc(-c2ccc(C3CCc4ccc([C@H](C5CC5)[C@H](C)C(=O)O)cc4O3)cc2CN2[C@H](C)CC[C@H]2C)ccn1` (stereo partly drawn) [Example 274] yielded an EC50 of 4.3 nM.
`CCN(CC)Cc1cc(C2CCc3ccc([C@H](C4CC4)[C@H](C)C(=O)O)cc3O2)ccc1-c1ccnc(OC)c1` (single isomer, unassigned) [Example 283] gave an EC50 of 4.4 nM.
Compound `COc1cc(-c2ccc([C@@H]3CCc4ccc([C@H](C5CC5)[C@H](C)C(=O)O)cc4O3)cc2CN(C(C)C)C(C)C)ccn1` [Example 284, Sodium (2S,3R)-3-cyclopropyl-3-((S)-2-(3-((diisopropylamino)methyl)-4-(2-methoxypyridin-4-yl)phenyl)chroman-7-yl)-2-methylpropanoate] has an EC50 of 0.3 nM.
`COc1cc(-c2ccc(C3CCc4ccc([C@H](C5CC5)[C@H](C)C(=O)O)cc4O3)cc2CN2CCCC2(C)C)ccn1` (stereo partly drawn) [Example 281] was tested, and the EC50 was 5.7 nM.
With `CCC1CCCCN1Cc1cc(C2CCc3ccc([C@H](C4CC4)[C@H](C)C(=O)O)cc3O2)ccc1-c1cc(OC)ncc1F` (single isomer, unassigned) [Example 273b] the EC50 was 0.3 nM.
With `COc1cc(-c2ccc(C3CCc4ccc([C@H](C5CC5)[C@H](C)C(=O)O)cc4O3)c(CN(C)C(C)(C)C)c2)ccn1` (single isomer, unassigned) [Example 114b] the EC50 was 250 nM.
With `COc1cc(-c2ccc(C3CCc4ccc([C@H](C5CC5)[C@H](C)C(=O)O)cc4O3)cc2CN2C3CCCC2CC3)c(F)cn1` (stereo partly drawn) [Example 270] the EC50 was 0.9 nM.
Work on `CCC1CCCCN1Cc1cc(C2CCc3ccc(C(C4CC4)C(C)C(=O)O)cc3O2)ccc1-c1ccnc(OC)c1` (single isomer, unassigned) [Example 258b] yielded an EC50 of 2.2 nM.
`COc1cc(-c2cc(F)c(C3CCc4ccc([C@H](C5CC5)[C@H](C)C(=O)O)cc4O3)cc2CN(C(C)C)C(C)C)ccn1` (single isomer, unassigned) [Example 183] showed an EC50 of 0.35 nM.
Compound `COc1cc(-c2ccc(C3CCc4ccc([C@H](C5CC5)[C@H](C)C(=O)O)cc4O3)c(CN3[C@H](C)CC[C@@H]3C)c2)ccn1` (stereo partly drawn) [Example 122] has an EC50 of 0.7 nM.
`COc1cc(-c2ccc(C3CCc4ccc([C@H](C5CC5)[C@@H](C)C(=O)O)cc4O3)cc2CN(C)C(C)(C)C)c(F)cn1` (stereo partly drawn) [Example 227] showed an EC50 of 14 nM.
`CCOc1cc(-c2ccc(C3CCc4ccc([C@H](C5CC5)[C@H](C)C(=O)O)cc4O3)cc2CN(CC)CC)c(F)cn1` (single isomer, unassigned) [Example 171, (2S, 3R)-3-cyclopropyl-3-((R or S)-2-(3-((diethylamino)methyl)-4-(2-ethoxy-5-fluoropyridin-4-yl)phenyl)chroman-7-yl)-2-methylpropanoic acid] gave an EC50 of 2.5 nM.
With `COc1cc(-c2ccc(C3CCc4ccc([C@H](C5CC5)[C@H](C)C(=O)O)cc4O3)c(CN3CCCCC3(C)C)c2)ccn1` (single isomer, unassigned) [Example 117a] the EC50 was 0.4 nM.
`COc1cc(-c2ccc(C3CCc4ccc([C@H](C5CC5)[C@H](C)C(=O)O)cc4O3)c(CN3CCCC3)c2)ccn1` (single isomer, unassigned) [Example 112a] gave an EC50 of 2.3 nM.
Compound `COc1cc(-c2ccc(C3CCc4ccc([C@H](C5CC5)[C@H](C)C(=O)O)cc4O3)cc2CN2CCC3CC32)c(F)cn1` (stereo partly drawn) [Example 252] has an EC50 of 0.7 nM.
In the case of `COc1cc(-c2ccc(C3CCc4ccc([C@H](C5CC5)[C@H](C)C(=O)O)cc4O3)cc2CN2CCCC2)ccn1` (stereo partly drawn) [Example 278], the EC50 is reported as 19 nM.
With `COc1cc(-c2ccc(C3CCc4ccc([C@H](C5CC5)[C@H](C)C(=O)O)cc4O3)cc2CN2CCCCC23CC3)c(C#N)cn1` (stereo partly drawn) [Example 293] the EC50 was 0.08 nM.
`COc1cc(-c2ccc(C3CCc4ccc([C@H](C5CC5)[C@H](C)C(=O)O)c(F)c4O3)cc2CN2CCCC2)c(F)cn1` (single isomer, unassigned) [Example 198] was tested, and the EC50 was 4.7 nM.
In the case of `CCN(Cc1cc(-c2ccnc(OC)c2)ccc1C1CCc2ccc([C@H](C3CC3)[C@H](C)C(=O)O)cc2O1)C(C)C` (single isomer, unassigned) [Example 113b], the EC50 is reported as 14 nM.
Compound `COc1cc(-c2cc(F)c(C3CCc4ccc([C@H](C5CC5)[C@H](C)C(=O)O)cc4O3)cc2CN(C(C)C)C(C)C)ccn1` (single isomer, unassigned) [Example 184] has an EC50 of 0.73 nM.
For `CCN(Cc1cc(C2CCc3ccc([C@H](C4CC4)[C@H](C)C(=O)O)cc3O2)c(F)cc1-c1ccnc(OC)c1)C(C)C` (single isomer, unassigned) [Example 185], the EC50 was 4.4 nM.
`COc1cc(-c2ccc(C3CCc4ccc([C@H](C5CC5)[C@H](C)C(=O)O)cc4O3)c(CN(C(C)C)C(C)C)c2)ccn1` (single isomer, unassigned) [Example 115b] was tested, and the EC50 was 5.3 nM.
`CCOc1cc(-c2ccc(C3CCc4ccc([C@H](C5CC5)[C@H](C)C(=O)O)cc4O3)cc2CN2CCCC2)c(Cl)cn1` (single isomer, unassigned) [Example 217] was tested, and the EC50 was 57 nM.
`COc1cc(-c2ccc(C3CCc4ccc([C@H](C5CC5)[C@H](C)C(=O)O)cc4O3)c(CN3[C@H](C)CC[C@H]3C)c2)ccn1` (single isomer, unassigned) [Example 116b] was tested, and the EC50 was 1 nM.
Work on `CCN(C)Cc1cc(C2CCc3ccc([C@H](C4CC4)[C@H](C)C(=O)O)cc3O2)ccc1-c1cc(OC)ncc1C#N` (single isomer, unassigned) [Example 195] yielded an EC50 of 12 nM.
Work on `COc1cc(-c2ccc(C3CCc4ccc([C@H](C5CCC5)[C@H](C)C(=O)O)cc4O3)cc2CN2CCCCC2)c(F)cn1` (single isomer, unassigned) [Example 104] yielded an EC50 of 1.1 nM.
`COc1cc(-c2ccc(C3CCc4ccc([C@H](C5CC5)[C@H](C)C(=O)O)c(F)c4O3)cc2CN2CCCC2(C)C)c(F)cn1` (single isomer, unassigned) [Example 206] was tested, and the EC50 was 1.3 nM.
